Experimental findings from patent publication US6890950B2, “Lapachone delivery systems, compositions and uses related thereto” (priority 2002, dated 2005) are described below.

Each structure is given as a SMILES string. “And” between values parts separate entries of the source, which are not always exact repeats. Identical values can stand only once.

Data set [1] has as its system NQO1-containing LNCaP clones. The experiment in a line: colony forming ability assays. The data set is classed as cell-based, human. To be noted: 4-h pulses. How it is done: FIG. 14. […] Colony forming ability assays (CFAs) were performed three times, each in triplicate.
LNCaP cells were transfected with either pcDNA3 empty vector or pcDNA3 containing full-length NQO1 cDNA.

Data set [2] in a line: phase solubility studies of β-lap with cyclodextrins. The data set is classed as physicochemical. The protocol:
Solubility studies were performed by adding excess amount of β-lap to a series of PBS buffer that contain different concentrations of each CD molecule ranging from zero to its solubility limit (see Table 1 for the solubility limit of each CD molecule). A schematic diagram of the intermolecular interactions and their effect on solubility is provided as FIG. 1. The suspensions were stirred at 25° C. until dissolution equilibrium was reached. […] Phase solubility diagram for each CD was obtained by plotting the β-lap solubility at dissolution equilibrium as a function of the CD concentration.

Data set [3] concerns A549 NSCLC cells. The data set can be described thus: survival and apoptosis (PARP cleavage) of NSCLC cells. It counts as cell-based, human. To be noted: 8 μM β-lap, 4 h.
Source text: NQO1-dependent apoptosis of A549 or CC-10 NSCLC cells by β-lap.
In data set [4] the test system is NQO1+ LNCaP NQCl2 cells. The data set can be described thus: radiosensitization, clonogenic survival. The data set is classed as cell-based, human. To be noted: β-lap given 4 h post-IR. How it is done: (§1) FIG. 15. […] Changes in colony forming ability. In A, pcDNA3-vector alone cells were tested. In B, same as A, except that NQO1^+ LNCaP cells were used.
(§2) To answer the question of whether NQO1 levels must be induced for β-lap radiosensitization, we examined NQO1^+ LNCaP NQC12 v. NQO1^− LNCaP-pcDNA3 vector alone cells for differences in radiosensitization by various concentrations of β-lap, given 4 h post-IR (FIG. 15).

Data set [5] relates to NQO1− LNCaP cells. The experiment in a line: radiosensitization, clonogenic survival. It counts as cell-based, human. The protocol: as §1, §2
Data set [6] relates to CC-10 tumor cell lines. The data set can be described thus: lethality and apoptosis of NSCLC cells. It counts as cell-based, mouse. The text has this:
PARP cleavage to a 60 kDa fragment and specific p53 proteolysis are diagnostic for β-lap-induced μ-calpain-mediated apoptosis.

The subject of data set [7] is C57Blk/6 mice. The data set can be described thus: animal toxicity study (morbidity and mortality). It counts as in vivo, mouse. To be noted: HPβ-CD inclusion complex vs Cremophor vehicle, from LD50. How it is done: C57Blk/6 female mice (3-4 week-old, 18-20 g) (Jackson Labs, Me.) were used to study the morbidity and mortality of mice treated with HPβ-CD.β-lap inclusion complex. Four mice per group were used for each dose, which varied from 20 to 100 mg/kg. […] Mice were injected (i.p.) every Monday, Wednesday and Friday for three weeks for a total of 10 injections. Control animals (4 mice/group) were injected with 5000 mg/kg of HPβ-CD alone to evaluate its toxicity. This HPβ-CD dose is approximately ten times of the HPβ-CD amount introduced at the highest dose of β-lap (100 mg/kg) via the HPβ-CD.β-lap inclusion complex. The higher dose of HPβ-CD was used to ensure the lack of toxicity of this compound. Weight and lethality were measured on a daily basis following initial drug administration. All animals were maintained in a facility accredited by the Association for Assessment and Accreditation of Laboratory Animal Care according to the “Principles of Laboratory Animal Care” of the National Institutes of Health.

As to `CC1(C)CCC2=C(O1)c1ccccc1C(=O)C2=O` [β-lap, β-Lapachone], the “sensitivity compared to NQO1-deficient LN-pcDNA3 vector alone cells” value in data set [1] is reported as “significantly more sensitive”. Also, in data set [2], the “increase of β-lap solubility in HPβ-CD over that in β-CD vehicle” value is recorded as 24 fold. Further, in data set [2] (HPβ-CD solution, PBS, 25° C.), the “maximal solubility of β-lap in HPβ-CD solution” value was 66.0 mM and 16.0 mg/ml. For the same molecule, the “water solubility of β-lap” value in data set [2] (water) is 0.16 mM and 0.04 mg/ml. Also, the “maximal solubility of β-lap in β-CD solution” value in data set [2] (β-CD solution, PBS, 25° C.) was 2.8 mM and 0.68 mg/ml. Moreover, the lethality and apoptosis entry was “caused lethality and apoptosis” in data set [3]; “caused lethality and apoptosis” in data set [6]. Besides, the figures for the radiosensitization result in data set [4] and in data set [5] were “radiosensitized” and “not sensitized”, respectively. The “sensitivity to β-lap” value in data set [6] (4 μM, 4 h) is reported as “extremely sensitive”. In data set [7], the “greater bioavailability in vivo compared to previous studies” value was roughly 3 fold.
